Literature values as cited in US20030134846A1, “Treatment of trypanosoma brucei with farnesyl protein transferase inhibitors” (Schering Corporation, priority 2001, published 2003).

Settings: patients treated for second stage infection; can lead to death

Nc1nc(N)nc(Nc2ccc([As]3SCC(CO)S3)cc2)n1 (stereo not shown) [melarsoprol]
reactive encephalopathy, occurrence in patients: 5-10%
